Reference: patent publication EP0172919A1, “CEPHALOSPORIN DERIVATIVES, PROCESS FOR THEIR PREPARATION, AND THEIR PHARMACEUTICAL USE” (TEIJIN LIMITED, priority 1984, dated 1985)
Values after ≈ are worked out from the molar mass of the structure shown. Where two headings read alike, the source gives them in different places.

How the values were obtained:
[1] = tested on: Micrococcus luteus ATCC9341; assay: In vitro antibacterial activity, two-fold agar-plate dilution method (MIC); type: cell-based; details: Micrococcus luteus ATCC9341; agar dilution, 37°C for 16 hours; read-out: MIC
Description: (§1) In vitro antibacterial activity was determined by the two-fold agar-plate dillution method.
(§2) One loopful of an overnight culture of each test starin in Trypticase-soy broth (10^6 viable cells per mt) was streaked on heart infusion agar (Muller-Hinton Agar) containing graded concentrations of representative test compound, and the minimal inhibitory concentration (MIC) was expressed in terms of µg/ml after incubation at 37°C for 16 hours.

[2] = tested on: Salmonera typhimurium IID 971; assay: as above; type: cell-based; details: 37°C for 16 hours
Description: as §1, §2

[3] = tested on: Staphyrococcus aureus FDA209JC-1; assay: as above; type: cell-based; details: Staphyrococcus aureus FDA209JC-1; agar dilution, 37°C for 16 hours; read-out: MIC
Description: as §1, §2

[4] = tested on: Escherichia coli K-12C-600; assay: as above; type: cell-based; details: K12C600, 37°C for 16 hours
Description: as §1, §2

[5] = tested on: Salmonera schottmuelleri 8001; assay: as above; type: cell-based; details: 37°C for 16 hours
Description: as §1, §2

[6] = tested on: Butilus subtilis ATCC6633; assay: as above; type: cell-based; details: 37°C for 16 hours
Description: as §1, §2

[7] = tested on: Pseudomonas aeruginosa PAO1; assay: as above; type: cell-based; details: Pseudomonas aeruginosa PAO1; agar dilution, 37°C for 16 hours; read-out: MIC
Description: as §1, §2

[8] = tested on: Pseudomonas aeruginosa NCTC10490; assay: as above; type: cell-based; details: Pseudomonas aeruginosa NCTC10490; agar dilution, 37°C for 16 hours; read-out: MIC
Description: as §1, §2

[9] = tested on: Staphyrococcus pyogenes COOK; assay: as above; type: cell-based; details: Staphyrococcus pyogenes COOK; agar dilution, 37°C for 16 hours; read-out: MIC
Description: as §1, §2

[10] = tested on: Staphyrococcus aureus MS 353; assay: as above; type: cell-based; details: Staphyrococcus aureus MS 353; agar dilution, 37°C for 16 hours; read-out: MIC
Description: as §1, §2

Staphyrococcus Terajima = assay: as above; type: cell-based; details: Staphyrococcus Terajima, agar dilution, 37°C for 16 hours
Description: as §1, §2
(§3) In vitro antibacterial activities of other compounds of the present invention were determined in the same way as in Example 26.

Enterobacter cloacae 963 = assay: as above; type: cell-based; details: Enterobacter cloacae 963, agar dilution, 37°C for 16 hours
Description: as §1, §2, §3

[11] = tested on: Pseudomonas aeruginosa IFO3445; assay: as above; type: cell-based; details: Pseudomonas aeruginosa IFO3445, agar dilution, 37°C for 16 hours
Description: as §1, §2, §3

E.coli 81 = assay: In vivo antibacterial activity: survival of mice infected with E.coli 81; parameters: species or system ICR strain male mice
Description: Experiment was performed in ICR strain male mice (5W) weighing 22 to 25 g. The animals were used in a group of 10 per regimen. Test organism, E.coli 81, was cultured on Mueller-Hinton agar over night at 37°C and suspended in saline to be one minimal lethal dose (5 x 10^5 cells/head). One mililitre of the bacterial suspension was injected intrapenetoreally and, after 15 minutes, mice were treated subcutaneously with various doses of compound (100) and comparative compound B. Survival mice were counted for 4 days and final observation was carried out on day 4.

Proleus vulgaria OX-19 = assay: In vitro antibacterial activity, two-fold agar-plate dilution method (MIC); type: cell-based; details: 37°C for 16 hours
Description: as §1, §2, §3

Salmonera paratyphi 1015 = assay: as above; type: cell-based
Description: as §1, §2, §3

[12] = tested on: Serratia marcescens IAM1184; assay: as above; type: cell-based
Description: as §1, §2, §3

Proleus morgani IFO3848 = assay: as above; type: cell-based; details: 37°C for 16 hours
Description: as §1, §2, §3

[13] = tested on: Proleus vulgaris IFO 3850; assay: as above; type: cell-based; details: Proleus vulgaris IFO 3850, agar dilution, 37°C for 16 hours
Description: as §1, §2, §3

## CON=C(C(=O)NC1C(=O)N2C(C(=O)O)=C(CSc3nnnn3C)CSC12)c1csc(N)n1 (stereo not drawn) [Comparative compound B]
[1]
  MIC: 0.39 µg/mL (≈ 0.762 µM)
[2]
  MIC: 0.39 µg/mL (≈ 0.762 µM)
[3]
  MIC: 3.12 µg/mL (≈ 6.1 µM)
[4]
  MIC: 0.05 µg/mL (≈ 0.0977 µM)
[5]
  MIC: 0.0063 µg/mL (≈ 0.0123 µM)
[6]
  MIC: 0.78 µg/mL (≈ 1.52 µM)
[7]
  MIC: 12.5 µg/mL (≈ 24.4 µM)
[8]
  MIC: 0.39 µg/mL (≈ 0.762 µM)
[9]
  MIC: 0.025 µg/mL (≈ 0.0489 µM)
[10]
  MIC: 0.2 µg/mL (≈ 0.391 µM)
Staphyrococcus Terajima; read-out: MIC
  MIC: 0.78 µg/mL (≈ 1.52 µM)
Enterobacter cloacae 963; read-out: MIC
  MIC: 0.2 µg/mL (≈ 0.391 µM)
[11]; read-out: MIC
  MIC: 12.5 µg/mL (≈ 24.4 µM)
E.coli 81; Dose 0.016 mg/head subcutaneously 15 minutes after intraperitoneal E.coli 81 (5 x 10^5 cells/head)
  Survivals percent (%) on day 4: 0%
E.coli 81; Dose 0.032 mg/head subcutaneously 15 minutes after intraperitoneal E.coli 81 (5 x 10^5 cells/head)
  Survivals percent (%) on day 4: 20%
E.coli 81; Dose 0.063 mg/head subcutaneously 15 minutes after intraperitoneal E.coli 81 (5 x 10^5 cells/head)
  Survivals percent (%) on day 4: 30%
E.coli 81; Dose 0.125 mg/head subcutaneously 15 minutes after intraperitoneal E.coli 81 (5 x 10^5 cells/head)
  Survivals percent (%) on day 4: 40%
E.coli 81; Dose 0.25 mg/head subcutaneously 15 minutes after intraperitoneal E.coli 81 (5 x 10^5 cells/head)
  Survivals percent (%) on day 4: 40%
E.coli 81; Dose 0.5 mg/head subcutaneously 15 minutes after intraperitoneal E.coli 81 (5 x 10^5 cells/head)
  Survivals percent (%) on day 4: 40%

## CO/N=C(\C(=O)N[C@@H]1C(=O)N2C(C(=O)[O-])=C(C[N+]34CCCCC3CCCC4)CS[C@H]12)c1csc(N)n1 (stereo partly drawn) [Compound (104), (6R,7R)-[(Z)-2-(2-aminothiazol-4-yl)-2-methoxyiminoacetoamido]-3-(1-azabicyclo [4,4,0]decane-1-io) methyl-3-cephem-4-carboxylate]
Proleus vulgaria OX-19; read-out: MIC
  MIC: 0.025 µg/mL (≈ 0.0468 µM)
Salmonera paratyphi 1015; 16 h
  MIC: 0.025 µg/mL (≈ 0.0468 µM)
Staphyrococcus Terajima; read-out: MIC
  MIC: 0.39 µg/mL (≈ 0.729 µM)
Enterobacter cloacae 963; read-out: MIC
  MIC: 0.1 µg/mL (≈ 0.187 µM)
[11]; read-out: MIC
  MIC: 1.56 µg/mL (≈ 2.92 µM)
[12]; Serratia marcescens IAM1184, agar dilution, 37°C for 16 hours, read-out: MIC
  MIC: 0.025 µg/mL (≈ 0.0468 µM)
Proleus morgani IFO3848; read-out: MIC
  MIC: 0.0125 µg/mL (≈ 0.0234 µM)
[13]; read-out: MIC
  MIC: 0.0125 µg/mL (≈ 0.0234 µM)

## CO/N=C(\C(=O)N[C@@H]1C(=O)N2C(C(=O)[O-])=C(C[N+]34CCCC3CCC4C)CS[C@H]12)c1csc(N)n1 (stereo partly drawn) [Compound (106), (6R,7R)-7-[(Z)-2-(2-aminothiazol-4-yℓ)-2-methoxyiminoacetoamido]-3-(l-aza-8-methl-bicyclo[3,3,0]octane-l-io)methyl-3-cephem-4-carboxylate]
Proleus vulgaria OX-19
  MIC: 0.025 µg/mL (≈ 0.048 µM)
Salmonera paratyphi 1015; Salmonera paratyphi 1015, agar dilution, 37°C for 16 hours
  MIC: 0.025 µg/mL (≈ 0.048 µM)
Staphyrococcus Terajima
  MIC: 0.2 µg/mL (≈ 0.384 µM)
Enterobacter cloacae 963
  MIC: 0.2 µg/mL (≈ 0.384 µM)
[11]
  MIC: 0.78 µg/mL (≈ 1.5 µM)
[12]; Serratia marcescens IAM1184, agar dilution, 37°C for 16 hours
  MIC: 0.05 µg/mL (≈ 0.096 µM)
Proleus morgani IFO3848
  MIC: 0.025 µg/mL (≈ 0.048 µM)
[13]
  MIC: 0.0125 µg/mL (≈ 0.024 µM)

## CC(C)(O/N=C(\C(=O)N[C@@H]1C(=O)N2C(C(=O)[O-])=C(C[N+]34CCCC3CCC4)CS[C@H]12)c1csc(N)n1)C(=O)O (stereo partly drawn) [Compound (116), (6R,7R)-7-[(Z)-2-(2-aminothiazol-4-yl)-2-(2-carboxypropyl-2-yloxyimino)acetoamido]-3-(1-azabicyclo[3,3,0]octane-l-io)methyl-3-cephem-4-carboxylate]
Salmonera paratyphi 1015; 16 h
  MIC: 0.0125 µg/mL (≈ 0.0216 µM)
Staphyrococcus Terajima; read-out: MIC
  MIC: 0.78 µg/mL (≈ 1.35 µM)
Enterobacter cloacae 963; read-out: MIC
  MIC: 0.05 µg/mL (≈ 0.0864 µM)
[11]; read-out: MIC
  MIC: 0.2 µg/mL (≈ 0.346 µM)
[12]; Serratia marcescens, IAM1184, 16 h
  MIC: 0.0125 µg/mL (≈ 0.0216 µM)
Proleus morgani IFO3848; read-out: MIC
  MIC: 0.0063 µg/mL (≈ 0.0109 µM)
[13]; read-out: MIC
  MIC: 0.0063 µg/mL (≈ 0.0109 µM)
